From publication PMC9030947, “Identification of Novel Natural Product Inhibitors against Matrix Metalloproteinase 9 Using Quantum Mechanical Fragment Molecular Orbital-Based Virtual Screening Methods” (International Journal of Molecular Sciences, 2022)

Biological target: T1, MMP-9 (Homo sapiens, UniProt P14780)
T1 construct: gene MMP9; Purified recombinant human MMP-9 protein with a His-tag (catalog number 10327-H08H)
Experiment: SPR (Biacore […], MMP-9 immobilized by amine coupling)
Assay type: binding

T1 sequence (P14780 107-707): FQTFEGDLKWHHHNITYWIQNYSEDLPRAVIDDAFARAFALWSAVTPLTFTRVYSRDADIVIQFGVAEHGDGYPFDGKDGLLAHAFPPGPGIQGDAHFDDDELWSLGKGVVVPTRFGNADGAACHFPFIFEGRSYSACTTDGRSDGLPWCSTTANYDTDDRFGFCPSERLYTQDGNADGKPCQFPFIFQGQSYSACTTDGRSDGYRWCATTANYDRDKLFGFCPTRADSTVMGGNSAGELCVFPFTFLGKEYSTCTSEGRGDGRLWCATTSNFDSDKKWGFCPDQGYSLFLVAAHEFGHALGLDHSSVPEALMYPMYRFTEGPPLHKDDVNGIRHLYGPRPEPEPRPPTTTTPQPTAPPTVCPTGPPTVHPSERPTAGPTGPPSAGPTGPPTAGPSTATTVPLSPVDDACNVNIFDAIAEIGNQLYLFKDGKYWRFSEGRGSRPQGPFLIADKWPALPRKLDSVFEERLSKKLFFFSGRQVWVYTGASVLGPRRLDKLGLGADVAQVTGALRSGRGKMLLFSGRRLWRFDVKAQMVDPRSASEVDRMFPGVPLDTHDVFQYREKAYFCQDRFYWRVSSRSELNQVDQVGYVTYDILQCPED

Structure (SMILES) | Kd [µM]
COc1cc2c(cc1O)-c1c(OC)c(O)cc3c1[C@H](C2)NCC3 [compound 9, laetanine] | 21.6
COc1cc(O)c2c(=O)cc(-c3ccc(O)cc3)oc2c1 [compound 10, genkwanin] | 0.614
